Marks after values point to notes of the source that are not given here.
Experiments:
[1] = system: Staphylococcus aureus ATCC 43300 (MRSA); test: microbe, parasite or virus in culture; assay type: cell-based; details: for MIC Sa: CO‐ADD screening; for MIC: n=2; for MIC values as low as (panel of S. aureus strains): lowest MIC within the S. aureus panel
Procedure: (§1) All compounds submitted to CO‐ADD are initially screened against five bacterial strains (Staphylococcus aureus (MRSA), E. coli, Klebsiella pneumoniae, Pseudomonas aeruginosa, Acinetobacter baumannii) and two fungal strains (Candida albicans, Cryptococcus neoformans) at a single concentration (32 μg/mL or 20 μM) performed as a high‐throughput primary screening.[[11], [17a]] Any compounds that show significant growth inhibition against any of the tested strains at this step are then evaluated in a dose‐response assay against these same strains. […]
(§2) Smiles: C1C=CCCC(=CC1)C1=CCCC=CCC1.C[Pt]C.C[Pt]C […]
(§3) ATCC strains were sourced from the American Type Culture Collection and NRS strains from NARSA (Network on Antimicrobial Resistance in Staphylococcus aureus) via BEI Resources (www.beiresources.org), with clinical MSSA and MRSA isolates from Prof Graeme Nimmo, Queensland […]
(§4) Health Central Pathology. […]
(§5) Antibacterial minimum inhibitory concentration (MIC) assay
(§6) Compound Assay Plate Preparation: Compounds were dissolved in DMSO at 10mM (CO-ADD screening) or 4 mM (follow up screening) and were plated in a 2-fold dose response from 20 to 0.156 µM or 200 to 0.006 µM respectively, with a maximum of 0.5% or 1% DMSO, final in the assay […]
(§7) plated in a 2-fold dose response from 200 to 0.006 µM, with a maximum of 1 % DMSO, final in the assay concentration. (in-house screening)
(§8) For all the bacterial assays, each strain was cultured in Cation-adjusted Mueller Hinton broth (CAMHB; Bacto Laboratories 212322) at 37 °C overnight. A sample of each culture was then diluted 40-fold in fresh CAMHB and incubated at 37 °C for 1.5–3 h. The resultant mid-log phase cultures were diluted with CAMHB (CFU mL−1 measured by OD600), then added to each well of the compound-containing plates (384-well non-binding surface (NBS) plates; Corning CLS3640), giving a cell density of 5 × 10^5 CFU mL−1 and a total volume of 50 μL. Plates were covered and incubated at 37 °C for 18 h without shaking. Inhibition of bacterial growth was determined measuring absorbance at 600 nm (OD600), using media only as negative control and bacteria without inhibitors as positive control. MIC values were determined as the lowest concentration at which the growth was inhibited at ≥80%. Colistin sulfate (Sigma C4461) and vancomycin HCl (Sigma 861987) were used as internal controls on each plate for Gram-negative and Gram-positive bacteria, respectively. […]

[2] = system: Acinetobacter baumannii ATCC 19606; test: Antibacterial MIC assay; assay type: cell-based; details: CO‐ADD screening
Procedure: as §1, §2, §3, §4, §5, §6, §7, §8

[3] = system: Escherichia coli ATCC 25922; test: Antibacterial MIC assay; assay type: cell-based; details: CO‐ADD screening
Procedure: as §1, §2, §3, §4, §5, §6, §7, §8

[4] = system: Pseudomonas aeruginosa ATCC 27853; test: Antibacterial MIC assay; assay type: cell-based; details: CO‐ADD screening
Procedure: as §1, §2, §3, §4, §5, §6, §7, §8

[5] = system: Klebsiella pneumoniae ATCC 700603 (ESBL SHV‐18)
Procedure: as §1, §2, §3, §4, §5, §6, §7, §8

[6] = system: HEK-293 ATCC CRL-1573 human embryonic kidney cells; assay type: cell-based
Procedure: As part of the CO‐ADD screening, all compounds that show any activity against a microbial strain are evaluated for their cytotoxicity against human embryonic kidney cells (HEK‐293) and for haemolysis against human red blood cells. None of the compounds tested for cytotoxicity (Pt1‐9 and Pd1) caused any significant cell death up to concentrations of 100 μM. […] We have also observed higher IC50 values for the methylated complexes Pt3 and Pt4 against HeLa cells in previous work.[16] […]
(§9) inhibitors as positive control.
(§10) Tamoxifen (Sigma T5648) was used
(§11) as internal control on each plate.
in a Neubauer haemocytometer. […]

human red blood cells = test: Haemolysis assay; assay type: cell-based; details: for Haemolysis HC10: concentration inducing 10 % haemolysis; for Haemolysis HC50: concentration inducing 50 % haemolysis
Procedure: As part of the CO‐ADD screening, all compounds that show any activity against a microbial strain are evaluated for their cytotoxicity against human embryonic kidney cells (HEK‐293) and for haemolysis against human red blood cells. None of the compounds tested for cytotoxicity (Pt1‐9 and Pd1) caused any significant cell death up to concentrations of 100 μM. […] We have also observed higher IC50 values for the methylated complexes Pt3 and Pt4 against HeLa cells in previous work.[16]
(§12) The resultant mid-log phase cultures were diluted
(§13) Gram-negative and Gram-positive bacteria, respectively.
(§14) final concentration range of 0.8 – 100 µM.
as §9, §10, §11
in a Neubauer haemocytometer.
incubated for 1 h at 37 °C, without shaking.
HC10 and HC50 (concentration at which 10%
for top, bottom and slope using Prism 8. […]

[7] = system: Bacillus subtilis ATCC 6051, type strain; test: Antibacterial MIC assay, Gram-positive panel; assay type: cell-based; details: n=2
Procedure: as §2, §3, §4, §5, §6, §7, §8

[8] = system: Enterococcus faecalis ATCC 29212, control strain; test: Antibacterial MIC assay, Gram-positive panel; assay type: cell-based; details: n=4
Procedure: as §2, §3, §4, §5, §6, §7, §8

[9] = system: Enterococcus faecalis Clinical Isolate, VRE (VanB); test: Antibacterial MIC assay, Gram-positive panel; assay type: cell-based; details: n=4
Procedure: as §2, §3, §4, §5, §6, §7, §8

[10] = system: Enterococcus faecium ATCC 35667, type strain; test: Antibacterial MIC assay, Gram-positive panel; assay type: cell-based; details: n=4
Procedure: as §2, §3, §4, §5, §6, §7, §8

[11] = system: Enterococcus faecium ATCC 51559, MDR, VRE (VanA); test: Antibacterial MIC assay, Gram-positive panel; assay type: cell-based; details: n=2
Procedure: as §2, §3, §4, §5, §6, §7, §8

[12] = system: Enterococcus faecium Clinical Isolate, VRE (VanA); test: Antibacterial MIC assay, Gram-positive panel; assay type: cell-based; details: n=4
Procedure: as §2, §3, §4, §5, §6, §7, §8

[13] = system: Staphylococcus epidermidis ATCC 14990, type strain; test: Antibacterial MIC assay, Gram-positive panel; assay type: cell-based; details: n=4
Procedure: as §2, §3, §4, §5, §6, §7, §8

[14] = system: Staphylococcus epidermidis NRS 60, VISE; test: Antibacterial MIC assay, Gram-positive panel; assay type: cell-based; details: n=4
Procedure: as §2, §3, §4, §5, §6, §7, §8

S. aureus NRS 17 GISA = test: MIC in the presence of human serum (serum reversal); assay type: cell-based, Staphylococcus aureus; details: 50% serum
Text: To obtain some initial insight into the apparent disparity between in vitro and in vivo results, we repeated the MIC experiments against four selected Gram‐positive strains in the presence of 10 % or 50 % human serum (Table S3). Pt1 and Pt2 maintained some antibacterial activity against B. subtilis in the presence of 10 % serum, but a complete loss of activity was observed against MRSA and GISA (50 % serum), and VRE (10 % serum). […] Systemic administration is therefore unlikely to be a suitable administration route for this class of compounds unless an alternative formulation that can prevent serum binding (e. g. by lipid or nanoparticle encapsulation) can be found. […] Further in vivo studies should therefore focus on more suitable disease models. […]
as §5
concentration. (in-house screening)
Bacto Laboratories 212322) at 37 °C overnight.
as §12, §13, §14
inhibitors as positive control. […]

CCC1=CCCC=CCC1.[CH3][Pt][Cl] [Pt7]
MIC Sa [1]: >20 µM
MIC ([1]; Table S1 panel): 200 µM
MIC Ab [2]: >20 µM
MIC Ec [3]: >20 µM
MIC Pa [4]: >20 µM
MIC Kp [5]: >20 µM
CC50 [6]: > 100 µM
Haemolysis HC10 (human red blood cells): 10.27 µM
Haemolysis HC50 (human red blood cells): 52.12 µM
MIC ([7]; Table S1 panel): > 200 µM
MIC ([8]; Table S1 panel): > 200 µM
MIC ([9]; Table S1 panel): > 200 µM
MIC ([10]; Table S1 panel): > 200 µM
MIC ([11]; Table S1 panel): 200 µM
MIC ([12]; Table S1 panel): > 200 µM
MIC ([13]; Table S1 panel): 200 µM
MIC ([14]; Table S1 panel): > 200 µM
MIC in the presence of human serum (S. aureus NRS 17 GISA): > 200 µM

C1=CCC/C=C\CC1.[I][Pt][I] [Pt2, Pt(COD)I2]
MIC Sa [1]: 1.25 µM
MIC ([1]; Table 2 panel): 0.39–0.78^[b] μg/mL
MIC values as low as (panel of S. aureus strains) [1]: 0.39 µM
MIC Ab [2]: >20 µM
MIC Ec [3]: >20 µM
MIC Pa [4]: >20 µM
MIC Kp [5]: >20 µM
CC50 [6]: > 100 µM
Haemolysis HC10 (human red blood cells): >100 µM
Haemolysis HC50 (human red blood cells): >100 µM
MIC ([7]; Table 2 panel): 3.125–6.25^[b] μg/mL
MIC ([8]; Table 2 panel): 25–50^[a] μg/mL
MIC ([9]; Table 2 panel): 12.5–25^[a] μg/mL
MIC ([10]; Table 2 panel): 25^[a] μg/mL
MIC ([11]; Table 2 panel): 12.5–25^[b] μg/mL
MIC ([12]; Table 2 panel): 25^[a] μg/mL
MIC ([13]; Table 2 panel): 1.56^[a] μg/mL
MIC ([14]; Table 2 panel): 6.25^[a] μg/mL
MIC in the presence of human serum (S. aureus NRS 17 GISA): > 200 µM

C1=C\CC/C=C\CC/1.[Cl-].[Cl-].[Pt+2] [Pt1, Pt(COD)Cl2]
MIC Sa [1]: 0.625 to 2.5 µM
MIC ([1]; Table 2 panel): 0.39^[b] μg/mL
MIC values as low as (panel of S. aureus strains) [1]: 0.39 µM
MIC Ab [2]: >20 µM
MIC Ec [3]: >20 µM
MIC Pa [4]: >20 µM
MIC Kp [5]: >20 µM
CC50 [6]: > 100 µM
Haemolysis HC10 (human red blood cells): >100 µM
Haemolysis HC50 (human red blood cells): >100 µM
MIC ([7]; Table 2 panel): 6.25^[b] μg/mL
MIC ([8]; Table 2 panel): 50–100^[a] μg/mL
MIC ([9]; Table 2 panel): 25^[a] μg/mL
MIC ([10]; Table 2 panel): 25^[a] μg/mL
MIC ([11]; Table 2 panel): 12.5^[b] μg/mL
MIC ([12]; Table 2 panel): 25–50^[a] μg/mL
MIC ([13]; Table 2 panel): 0.781^[a] μg/mL
MIC ([14]; Table 2 panel): 3.125^[a] μg/mL
MIC in the presence of human serum (S. aureus NRS 17 GISA): > 200 µM

From paper PMC8596843, “Platinum Cyclooctadiene Complexes with Activity against Gram‐positive Bacteria” (Chemmedchem, 2021)
